The results in this text go back to patent US20250034216A1, “STEREOSELECTIVE COVALENT LIGANDS FOR ONCOGENIC AND IMMUNOLOGICAL PROTEINS” (The Scripps Research Institute, priority 2021, published 2025).

What all share (assay): IA-DTB cysteine engagement
Type in all cases: binding

One assay concerns the target T1, HMOX2_C282 (Homo sapiens, UniProt P30519).
T1 construct: endogenous in cells; host or cells: 22Rv1
T1 sequence (P30519 1-316): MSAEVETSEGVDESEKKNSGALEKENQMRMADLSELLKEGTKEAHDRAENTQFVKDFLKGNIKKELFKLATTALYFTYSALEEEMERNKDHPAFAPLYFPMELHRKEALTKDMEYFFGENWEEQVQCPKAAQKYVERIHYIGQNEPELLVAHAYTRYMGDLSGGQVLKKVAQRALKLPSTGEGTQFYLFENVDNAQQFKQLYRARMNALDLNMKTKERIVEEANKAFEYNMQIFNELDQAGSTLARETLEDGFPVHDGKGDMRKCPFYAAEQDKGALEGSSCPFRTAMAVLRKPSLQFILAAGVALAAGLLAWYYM
To be noted: 22Rv1 cells, relative to DMSO; for % engagement HMOX2_282: 5 μM probe, 1 h (FIG. 5B); for % engagement HMOX2_C282: 20 μM probe, 1 h. The method, then: (§1) Sample preparation: Cells (adherent: 15 cm dishes, suspension: 2 million cells/mL) were treated with electrophilic probes in situ for indicated times and concentrations, washed with ice-cold PBS, and flash frozen in liquid nitrogen. Cell pellets were lysed by sonication (8 pulses, 40% power) in 500 μL ice-cold PBS supplemented with cOmplete protease inhibitors (1 tablet/10 mL of PBS). Whole cell lysates protein content was measured using a standard DC protein assay (Bio-Rad) and 500 μL (2 mg/mL protein content) were treated with 5 μL of 10 mM 1A-DTB (in DMSO) for 1 h at ambient temperature with occasional vortexing. Samples were methanol-chloroform precipitated with the addition of 500 μL ice-cold MeOH and 200 μL CHCl3, vortexed, and centrifuged (10 min, 10,000 g). Without disrupting the protein disk, both top and bottom layers were aspirated and the protein disk was washed with 1 mL ice-cold MeOH and centrifuged (10 min, 10,000 g). The pellets were allowed to air dry, and then re-suspended in 90 μL buffer (9 M urea, 10 mM DTT, 50 mM TEAB pH 8.5). Samples were reduced by heating at 65 C for 20 minutes and water bath sonicated as needed to resuspend the protein pellets, followed by alkylation via addition of 10 μL (500 mM) iodoacetamide and incubated at 37 C for 30 min with shaking. Samples were briefly centrifuged, and probe sonicated once more to ensure complete resuspension, and then diluted with 300 μL buffer (50 mM TEAB pH 8.5) to reach final concentration of 2 M urea. Trypsin (4 μL of 0.25 μg/μL in trypsin resuspension buffer with 25 mM CaCl2)) was added to each sample and digested at 37 C for 2 h to overnight. Digested samples were then diluted with 300 μL wash buffer (50 mM TEAB pH 8.5, 150 mM NaCl, 0.2% NP-40) containing streptavidin-agarose beads (50 μL of 50% slurry in wash buffer) and were rotated at room temperature for 2 hours. Enriched samples were pelleted by centrifugation (2000 g, 2 min) and transferred to BioSpin columns and washed (3×1 mL wash buffer, 3×1 mL PBS, 3×1 mL water). Enriched peptides were eluted by 300 μL 50% acetonitrile with 0.1% formic acid and eluate was evaporated to dryness via speedvac. IA-DTB labeled and enriched peptides were resuspended in 100 μL EPPS buffer (200 mM, pH 8.0) with 30% acetonitrile, vortexed, and water bath sonicated. Samples were TMT labeled with 3 μL of corresponding TMT tag (5 mg tag resuspended in 256 μL acetonitrile), vortexed, and incubated at room temperature for 1 hour. TMT labeling was quenched with the addition of hydroxylamine (5 μL 5% solution in H2O) and incubated for 15 minutes at room temperature. Samples were then acidified with 5 μL formic acid, combined and dried using a SpeedVac. Samples were desalted via Sep-Pak and then high pH fractionated.
(§2) Data processing: Cysteine engagement ratios (probe vs DMSO) were calculated for each peptide-spectra match by dividing each TMT reporter ion intensity by the average intensity for the channels corresponding to DMSO treatment. Peptide-spectra matches were then grouped based on protein ID and residue number (e.g., PSME1 C22), excluding peptides with summed reporter ion intensities for the DMSO channels <10,000, coefficient of variation for DMSO channels >0.5, and non-tryptic peptide sequences. TMT reporter ion intensities were normalized to the median summed signal intensity across channels.
(§3) Filtering of cysteine data: Replicates were combined based on cell line and treatment condition (probe, concentration, duration) by averaging cysteine engagement ratios across all experiments.

The target in the next assay is T2, LMF2_C659 (Homo sapiens, UniProt Q9BU23).
T2 construct: endogenous in cells; host or cells: 22Rv1
T2 sequence (Q9BU23 1-707): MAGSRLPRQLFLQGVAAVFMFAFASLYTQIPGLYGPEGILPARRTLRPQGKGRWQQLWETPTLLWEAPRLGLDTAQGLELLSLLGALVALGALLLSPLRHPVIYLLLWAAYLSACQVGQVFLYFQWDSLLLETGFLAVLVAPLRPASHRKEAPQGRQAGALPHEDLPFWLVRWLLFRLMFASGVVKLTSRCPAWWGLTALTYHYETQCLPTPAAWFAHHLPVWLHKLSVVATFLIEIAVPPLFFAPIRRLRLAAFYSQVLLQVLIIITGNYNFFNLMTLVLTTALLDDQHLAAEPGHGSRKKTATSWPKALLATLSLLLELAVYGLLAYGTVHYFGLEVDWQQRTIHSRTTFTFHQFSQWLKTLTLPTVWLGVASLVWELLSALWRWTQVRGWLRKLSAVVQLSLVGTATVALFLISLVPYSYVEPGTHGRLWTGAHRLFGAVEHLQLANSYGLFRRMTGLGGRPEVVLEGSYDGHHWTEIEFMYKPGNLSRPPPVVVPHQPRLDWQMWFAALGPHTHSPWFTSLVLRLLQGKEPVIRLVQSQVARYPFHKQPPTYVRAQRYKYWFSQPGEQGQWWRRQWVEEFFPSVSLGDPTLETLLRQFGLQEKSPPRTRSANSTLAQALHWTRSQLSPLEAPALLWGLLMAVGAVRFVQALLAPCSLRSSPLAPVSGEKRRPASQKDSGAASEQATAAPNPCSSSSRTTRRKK
Conditions: 22Rv1 cells, 20 μM probe, 1 h, relative to DMSO. Here is the method: as §1, §2, §3

The target in the next assay is T3, DHX9_C608 (Homo sapiens, UniProt Q08211).
T3 construct: endogenous in cells; host or cells: 22Rv1
T3 sequence (Q08211 whole entry): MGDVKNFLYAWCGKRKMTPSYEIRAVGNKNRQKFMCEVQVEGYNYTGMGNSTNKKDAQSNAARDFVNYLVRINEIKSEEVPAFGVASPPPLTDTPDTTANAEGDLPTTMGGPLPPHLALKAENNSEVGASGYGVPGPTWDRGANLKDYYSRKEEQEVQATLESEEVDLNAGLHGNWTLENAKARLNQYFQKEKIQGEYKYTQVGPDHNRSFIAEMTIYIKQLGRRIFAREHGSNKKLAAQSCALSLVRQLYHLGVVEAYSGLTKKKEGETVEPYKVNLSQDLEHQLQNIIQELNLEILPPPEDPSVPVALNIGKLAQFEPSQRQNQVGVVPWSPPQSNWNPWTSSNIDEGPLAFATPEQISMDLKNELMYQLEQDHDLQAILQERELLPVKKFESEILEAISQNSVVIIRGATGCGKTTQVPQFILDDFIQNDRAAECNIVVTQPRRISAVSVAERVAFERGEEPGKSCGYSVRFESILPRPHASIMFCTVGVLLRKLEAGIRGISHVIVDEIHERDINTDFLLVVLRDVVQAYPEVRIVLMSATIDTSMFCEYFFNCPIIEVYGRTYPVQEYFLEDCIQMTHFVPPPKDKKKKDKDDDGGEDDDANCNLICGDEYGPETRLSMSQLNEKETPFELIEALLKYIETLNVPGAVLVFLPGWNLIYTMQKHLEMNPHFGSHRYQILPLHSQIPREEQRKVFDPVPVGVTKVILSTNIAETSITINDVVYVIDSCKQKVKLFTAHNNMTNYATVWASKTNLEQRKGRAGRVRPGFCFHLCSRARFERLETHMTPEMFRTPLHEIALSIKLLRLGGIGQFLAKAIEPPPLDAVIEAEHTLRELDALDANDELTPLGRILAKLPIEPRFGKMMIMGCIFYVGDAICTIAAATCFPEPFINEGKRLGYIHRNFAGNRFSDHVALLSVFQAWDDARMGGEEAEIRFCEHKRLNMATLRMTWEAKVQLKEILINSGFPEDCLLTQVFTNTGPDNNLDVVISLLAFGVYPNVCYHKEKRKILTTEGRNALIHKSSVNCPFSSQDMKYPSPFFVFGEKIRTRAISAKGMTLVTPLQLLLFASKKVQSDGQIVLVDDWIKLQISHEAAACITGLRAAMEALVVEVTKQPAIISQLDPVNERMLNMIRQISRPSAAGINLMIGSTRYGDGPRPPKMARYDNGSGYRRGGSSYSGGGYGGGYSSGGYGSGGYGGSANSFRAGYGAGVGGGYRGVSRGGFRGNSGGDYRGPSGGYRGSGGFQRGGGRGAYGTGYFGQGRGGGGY
Conditions: 22Rv1 cells, 20 μM probe, 1 h, relative to DMSO. The method, then:
as §1, §2, §3

Take `CC#CC(=O)N1C[C@H](c2ccc(Br)cc2)[C@@H]1C(=O)Nc1cccc2cccnc12` [MY-45B, (2R,3S)-3-(4-bromophenyl)-1-(but-2-ynoyl)-N-(quinolin-8-yl)azetidine-2-carboxamide]: the “% engagement HMOX2_282” value at HMOX2_C282 came out at 92.13%.

In the case of `C=CC(=O)N1C[C@H](c2ccc(Br)cc2)[C@@H]1C(=O)Nc1cccc2cccnc12` [MY-1B, (2R,3S)-1-acryloyl-3-(4-bromophenyl)-N-(quinolin-8-yl)azetidine-2-carboxamide], on LMF2_C659, the “% engagement LMF2_C659” value worked out at 65.75%. Besides, at HMOX2_C282, the “% engagement HMOX2_282” value was 94.00% and the “% engagement HMOX2_C282” value came out at 96.25%. Also, the “% engagement DHX9_C608” value at DHX9_C608 is on record as −11%.

Take `C=CC(=O)N1C[C@H](c2ccc(Br)cc2)[C@H]1C(=O)Nc1cccc2cccnc12` [MY-3B, (2S,3S)-1-acryloyl-3-(4-bromophenyl)-N-(quinolin-8-yl)azetidine-2-carboxamide]: at LMF2_C659, the “% engagement LMF2_C659” value came to 69.25%. Besides, the “% engagement HMOX2_C282” value at HMOX2_C282 is reported as 97.75%. For the same molecule, on DHX9_C608, the “% engagement DHX9_C608” value is recorded as 69.5%.

With `C=CC(=O)N1C[C@H](c2ccc(Br)cc2)[C@H]1C(=O)Nc1cccc2cccnc12` [MY-3A, (2S,3S)-1-acryloyl-3-(4-bromophenyl)-N-(quinolin-8-yl)azetidine-2-carboxamide], at LMF2_C659, the “% engagement LMF2_C659” value is on record as 44.75%. In addition, at HMOX2_C282, the “% engagement HMOX2_C282” value turned out to be 96.25%. Besides, the “% engagement DHX9_C608” value at DHX9_C608 was found to be 16%.

Consider `C=CC(=O)N1C[C@@H](c2ccc(Br)cc2)[C@H]1C(=O)Nc1cccc2cccnc12` [MY-1A, (2S,3R)-1-acryloyl-3-(4-bromophenyl)-N-(quinolin-8-yl)azetidine-2-carboxamide], for which, on LMF2_C659, the “% engagement LMF2_C659” value was found to be 66%. Further, the “% engagement HMOX2_C282” value on HMOX2_C282 came to 93.5%. For the same molecule, the “% engagement DHX9_C608” value on DHX9_C608 was −10.5%.
